Among the data in patent US8962608B2, “Cycloalkylnitrile pyrazole carboxamides as janus kinase inhibitors” (Merck Sharp & Dohme Corp., priority 2011, dated 2015) are IC50 values, retold here.

The structures appear in SMILES notation.
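Also: biochemical JAK kinase assay with HTRF detection.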

The target of the assay is JAK2 (recombinant purified GST-tagged catalytic domain) (Homo sapiens (Human), UniProt O60674). The assay can be described thus: biochemical.
Chain of JAK2 (recombinant purified GST-tagged catalytic domain) (O60674 849-1124): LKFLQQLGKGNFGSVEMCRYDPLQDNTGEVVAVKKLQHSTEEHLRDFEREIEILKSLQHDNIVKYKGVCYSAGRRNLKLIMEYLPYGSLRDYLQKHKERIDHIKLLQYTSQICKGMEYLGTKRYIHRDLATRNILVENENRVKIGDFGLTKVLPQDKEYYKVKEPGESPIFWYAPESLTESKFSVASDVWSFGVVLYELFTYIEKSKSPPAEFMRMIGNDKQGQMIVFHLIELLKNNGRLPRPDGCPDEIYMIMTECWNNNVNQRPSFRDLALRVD
As a reminder, the IC50 is the concentration needed to halve the response being measured. For `C[C@H](N[C@H]1CC[C@H](n2cc(C(N)=O)c(Nc3ccc(C(F)(F)F)nc3)n2)[C@@H](C#N)C1)C1CC1` (single isomer, unassigned) [Example 28-8, 1-[(1S,2S,4S or 1R,2R,4R)-2-cyano-4-{[(1S)-1-cyclopropylethyl]amino}cyclo-hexyl]-3-{[6-(trifluoromethyl)pyridin-3-yl]amino}-1H-pyrazole-4-carboxamide], the IC50 stood at 0.2 µM.

Consider `CC1(CN[C@@H]2CC[C@H](n3cc(C(N)=O)c(Nc4ccc(C(F)(F)F)cc4)n3)[C@@H](C#N)C2)COC1` (single isomer, unassigned) [Example 28-16, 1-[(1S,2S,4R or 1R,2R,4S)-2-cyano-4-{[(3-methyloxetan-3-yl)methyl]amino}cyclohexyl]-3-{[4-(trifluoromethyl)phenyl]amino}-1H-pyrazole-4-carboxamide], for which the IC50 worked out at 0.021 µM.

As for `CN(C)[C@@H]1CC[C@@H](n2cc(C(N)=O)c(Nc3ccc(C(F)(F)F)nc3)n2)[C@H](C#N)C1` (single isomer, unassigned) [Example 28-18, 1-[(1R,2R,4R or 1S,2S,4S)-2-cyano-4-(dimethylamino)cyclohexyl]-3-{[6-(trifluoromethyl)pyridin-3-yl]amino}-1H-pyrazole-4-carboxamide], the IC50 was 0.4 µM.

For the compound `C[C@H](N[C@@H]1CC[C@H](n2cc(C(N)=O)c(Nc3ccc(C(F)(F)F)nc3)n2)[C@@H](C#N)C1)C1CC1` (single isomer, unassigned) [Example 28-19, 1-[(1S,2S,4R or 1R,2R,4S)-2-cyano-4-{[(1S)-1-cyclopropylethyl]amino}cyclo-hexyl]-3-{[6-(trifluoromethyl)pyridin-3-yl]amino}-1H-pyrazole-4-carboxamide], the IC50 worked out at 0.675 µM.

Consider `CN(C)[C@H]1CC[C@H](n2cc(C(N)=O)c(Nc3ccc(C(F)(F)F)nc3)n2)[C@@H](C#N)C1` (single isomer, unassigned) [Example 28-22, 1-[(1S,2S,4S or 1R,2R,4R)-2-cyano-4-(dimethylamino)cyclohexyl]-3-{[6-(trifluoromethyl)pyridin-3-yl]amino}-1H-pyrazole-4-carboxamide], for which the IC50 was found to be 0.145 µM.

For the compound `CN(C)[C@@H]1CC[C@H](n2cc(C(N)=O)c(Nc3ccc(C(F)(F)F)nc3)n2)[C@@H](C#N)C1` (single isomer, unassigned) [Example 28-25, 1-[(1S,2S,4R or 1R,2R,4S)-2-cyano-4-(dimethylamino)cyclohexyl]-3-{[6-(trifluoromethyl)pyridin-3-yl]amino}-1H-pyrazole-4-carboxamide], the IC50 came to 0.155 µM.

For `CC1(CN[C@H]2CC[C@H](n3cc(C(N)=O)c(Nc4ccc(C(F)(F)F)cc4)n3)[C@@H](C#N)C2)COC1` (single isomer, unassigned) [Example 28-26, 1-[(1S,2S,4S or 1R,2R,4R)-2-cyano-4-{[(3-methyloxetan-3-yl)methyl]amino}cyclohexyl]-3-{[4-(trifluoromethyl)phenyl]amino}-1H-pyrazole-4-carboxamide], the IC50 is 0.035 µM.

Turning to `CN(C)[C@H]1CC[C@@H](n2cc(C(N)=O)c(Nc3ccc(C(F)(F)F)nc3)n2)[C@H](C#N)C1` (single isomer, unassigned) [Example 28-27, 1-[(1R,2R,4S or 1S,2S,4R)-2-cyano-4-(dimethylamino)cyclohexyl]-3-{[6-(trifluoromethyl)pyridin-3-yl]amino}-1H-pyrazole-4-carboxamide], the IC50 was 0.8 µM.

Regarding `N#C[C@H]1C[C@@H](N2CCC2)CC[C@@H]1n1cc(C(N)=O)c(Nc2ccc(Cl)c(F)c2)n1` (single isomer, unassigned) [Example 28-36, 1-[(1S,2S,4S or 1R,2R,4R)-4-azetidin-1-yl-2-cyanocyclohexyl]-3-[(4-chloro-3-fluorophenyl)amino]-1H-pyrazole-4-carboxamide], the IC50 was found to be 0.084 µM.

Turning to `N#C[C@H]1C[C@H](N2CCC2)CC[C@@H]1n1cc(C(N)=O)c(Nc2ccc(Cl)c(F)c2)n1` (single isomer, unassigned) [Example 28-37, 1-[(1S,2S,4R or 1R,2R,4S)-4-azetidin-1-yl-2-cyanocyclohexyl]-3-[(4-chloro-3-fluorophenyl)amino]-1H-pyrazole-4-carboxamide], the IC50 was found to be 0.12 µM.

Consider `CN[C@@H]1CC[C@H](n2cc(C(N)=O)c(Nc3ccc(Cl)c(F)c3)n2)[C@@H](C#N)C1` (single isomer, unassigned) [Example 28-39, 3-[(4-chloro-3-fluorophenyl)amino]-1-[(1S,2S,4R or 1R,2R,4S)-2-cyano-4-(methylamino)cyclohexyl]-1H-pyrazole-4-carboxamide], for which the IC50 worked out at 0.035 µM.

Regarding `CN[C@H]1CC[C@H](n2cc(C(N)=O)c(Nc3ccc(Cl)c(F)c3)n2)[C@@H](C#N)C1` (single isomer, unassigned) [Example 28-43, 3-[(4-chloro-3-fluorophenyl)amino]-1-[(1S,2S,4S or 1R,2R,4R)-2-cyano-4-(methylamino)cyclohexyl]-1H-pyrazole-4-carboxamide], the IC50 amounted to 0.026 µM.

Regarding `CC1(C)CN([C@@H]2CC[C@H](n3cc(C(N)=O)c(Nc4ccc([C@H](O)C(F)(F)F)cc4)n3)[C@@H](C#N)C2)C1` (single isomer, unassigned) [Example 28-44, 1-[(1S,2S,4R or 1R,2R,4S)-2-cyano-4-(3,3-dimethylazetidin-1-yl)cyclohexyl]-3-({4-[(1S or 1R)-2,2,2-trifluoro-1-hydroxyethyl]phenyl}amino)-1H-pyrazole-4-carboxamide], the IC50 was 0.011 µM.

Turning to `N#C[C@H]1C[C@@H](N2CCC2)CC[C@@H]1n1cc(C(N)=O)c(Nc2ccc([C@H](O)C(F)(F)F)cc2)n1` (single isomer, unassigned) [Example 28-47, 1-[(1S,2S,4S or 1R,2R,4R)-4-azetidin-1-yl-2-cyanocyclohexyl]-3-({4-[(1S or 1R)-2,2,2-trifluoro-1-hydroxyethyl]phenyl}amino)-1H-pyrazole-4-carboxamide], the IC50 is 0.011 µM.

Turning to `CN(C)[C@@H]1CC[C@H](n2cc(C(N)=O)c(Nc3ccc(OC(F)(F)F)cc3)n2)[C@@H](C#N)C1` (single isomer, unassigned) [Example 28-54, 1-[(1S,2S,4R or 1R,2R,4S)-2-cyano-4-(dimethylamino)cyclohexyl]-3-{[4-(trifluoromethoxy)phenyl]amino}-1H-pyrazole-4-carboxamide], the IC50 was found to be 0.092 µM.

On to `CC1(C)CN([C@H]2CC[C@H](n3cc(C(N)=O)c(Nc4ccc([C@@H](O)C(F)(F)F)cc4)n3)[C@@H](C#N)C2)C1` (single isomer, unassigned) [Example 28-61, 1-[(1S,2S,4S or 1R,2R,4R)-2-cyano-4-(3,3-dimethylazetidin-1-yl)cyclohexyl]-3-({4-[(1R or 1S)-2,2,2-trifluoro-1-hydroxyethyl]phenyl}amino)-1H-pyrazole-4-carboxamide], for which the IC50 was found to be 0.004 µM.

On to `N#C[C@H]1C[C@H](N2CCC2)CC[C@@H]1n1cc(C(N)=O)c(Nc2ccc([C@H](O)C(F)(F)F)cc2)n1` (single isomer, unassigned) [Example 28-65, 1-[(1S,2S,4R or 1R,2R,4S)-4-azetidin-1-yl-2-cyanocyclohexyl]-3-({4-[(1S or 1R)-2,2,2-trifluoro-1-hydroxyethyl]phenyl}amino)-1H-pyrazole-4-carboxamide], for which the IC50 stood at 0.012 µM.

Turning to `N#C[C@H]1C[C@@H](N2CCC2)CC[C@@H]1n1cc(C(N)=O)c(Nc2ccc(C=O)cc2)n1` (single isomer, unassigned) [Example 28-66, 1-[(1S,2S,4S or 1R,2R,4R)-4-azetidin-1-yl-2-cyanocyclohexyl]-3-[(4-formylphenyl)amino]-1H-pyrazole-4-carboxamide], the IC50 was 0.016 µM.

Regarding `CC1(C)CN([C@@H]2CC[C@H](n3cc(C(N)=O)c(Nc4ccc([C@@H](O)C(F)(F)F)cc4)n3)[C@@H](C#N)C2)C1` (single isomer, unassigned) [Example 28-81, 1-[(1S,2S,4R or 1R,2R,4S)-2-cyano-4-(3,3-dimethylazetidin-1-yl)cyclohexyl]-3-({4-[(1R or 1S)-2,2,2-trifluoro-1-hydroxyethyl]phenyl}amino)-1H-pyrazole-4-carboxamide], the IC50 worked out at 0.024 µM.

`N#C[C@H]1C[C@H](N2CCC2)CC[C@@H]1n1cc(C(N)=O)c(Nc2ccc([C@@H](O)C(F)(F)F)cc2)n1` (single isomer, unassigned) [Example 28-85, 1-[(1S,2S,4R or 1R,2R,4S)-4-azetidin-1-yl-2-cyanocyclohexyl]-3-({4-[(1R or 1S)-2,2,2-trifluoro-1-hydroxyethyl]phenyl}amino)-1H-pyrazole-4-carboxamide]: the IC50 is 0.017 µM.

As for `CN(C)[C@H]1CC[C@H](n2cc(C(N)=O)c(Nc3ccc(OC(F)(F)F)cc3)n2)[C@@H](C#N)C1` (single isomer, unassigned) [Example 28-86, 1-[(1S,2S,4S or 1R,2R,4R)-2-cyano-4-(dimethylamino)cyclohexyl]-3-{[4-(trifluoromethoxy)phenyl]amino}-1H-pyrazole-4-carboxamide], the IC50 amounted to 0.018 µM.

In the case of `N#C[C@H]1C[C@@H](N2CCC2)CC[C@@H]1n1cc(C(N)=O)c(Nc2ccc([C@@H](O)C(F)(F)F)cc2)n1` (single isomer, unassigned) [Example 28-87, 1-[(1S,2S,4S or 1R,2R,4R)-4-azetidin-1-yl-2-cyanocyclohexyl]-3-({4-[(1R or 1S)-2,2,2-trifluoro-1-hydroxyethyl]phenyl}amino)-1H-pyrazole-4-carboxamide], the IC50 turned out to be 0.013 µM.

With `CC1(C)CN([C@H]2CC[C@H](n3cc(C(N)=O)c(Nc4ccc([C@H](O)C(F)(F)F)cc4)n3)[C@@H](C#N)C2)C1` (single isomer, unassigned) [Example 28-93, 1-[(1S,2S,4S or 1R,2R,4R)-2-cyano-4-(3,3-dimethylazetidin-1-yl)cyclohexyl]-3-({4-[(1S or 1R)-2,2,2-trifluoro-1-hydroxyethyl]phenyl}amino)-1H-pyrazole-4-carboxamide], the IC50 was 0.005 µM.

As to `N#C[C@H]1C[C@H](NCC(F)F)CC[C@@H]1n1cc(C(N)=O)c(Nc2ccnc(F)c2)n1` (single isomer, unassigned) [Example 28-106, 1-{(1S,2S,4R or 1R,2R,4S)-2-cyano-4-[(2,2-difluoroethyl)amino]cyclohexyl}-3-[(2-fluoropyridin-4-yl)amino]-1H-pyrazole-4-carboxamide], the IC50 worked out at 0.053 µM.
